The record followed here is USRE49351E1, “Cytoprotective agent” (Biogen MA Inc., priority 2009, dated 2023).

Common to all, as to assay type: in vivo
One assay concerns TNF-α. The assay can be described thus: Real time RT-PCR of inflammation parameter TNF-α in brain of mouse cerebral infarction model. Particulars: 10 mg/kg, ipsilesional (right) brain at 24 h, mean ± SE, n=6. As for the experimental part: (§1) Using the Mouse Cerebral Infarction model changes of parameters related to inflammation among the triprenyl phenol compound (10 mg/kg) administration groups, the alteplase (10 mg/kg) administration groups, and the alteplase (10 mg/kg) and aspirin (10 mg/kg) combined administration group were evaluated by a real time RT-PCR method. As the parameters IL-1β, TNF-α nd IL-6 were selected, which were typical parameters related to inflammation.
(§2) The administrations of SMTP-7 (10 mg/kg) and alteplase (10 mg/kg) were initiated 1 hour or 3 hours after the initiation of ischemia. The administration method was same as Example 3.
(§3) The combined administration of alteplase (10 mg/kg) and aspirin (10 mg/kg) was initiated 3 hours after the initiation of ischemia. Alteplase was administered same as in Example 3, and aspirin was administered by a bolus intravenous injection into the femoral vein.
(§4) The administrations of SMTP-6, SMTP-22, SMTP-25, SMTP-43 and SMTP-44D were initiated 1 hour after the initiation of ischemia. The administration method was same as Example 5.
(§5) After 24 hours of the initiation of the operation, a Krebs-HEPES buffer was perfused from the heart and then the brain was extirpated.
(§6) After preparing brain slices, the fourth slice was divided to the left brain and the right brain, and homogenized respectively with 1 mL of TRIZOL (registered trademark) reagent (Invitrogen). After incubating at room temperature for 5 min, adding chloroform (0.2 mL), and mixing for 15 sec, incubation was carried out at room temperature for 3 min. The samples were centrifuged at 4° C. for 15 min at 12,000×g.
(§7) Since RNA moved to a water layer, the water layer was collected and, after addition of 0.5 mL of isopropyl alcohol, followed by incubation at room temperature for 10 min, centrifuged at 4° C. for 10 min at 12,000×g. Since a pellet was formed in a tube after the centrifugation, the supernatant was removed, and 1 mL of 75% ethanol was added followed by stirring to wash the pellet. The mixture was then centrifuged at 4° C. for 5 min at 7,500×g. After removing again the supernatant, being left for natural drying for 8 min, the pellet containing the RNA was dissolved in 100 μL of RNase-free water. cDNA was produced by reverse transcription of the RNA using a SuperScript (registered trademark) VILOTM cDNA Synthesis Kit (Invitrogen) by a Thermal Cycler 2720 (Applied Biosystems). More particularly, 4 μL of 5×VILOTM Reaction Mix, 2 μL of 10× SuperScript (registered trademark) Enzyme Mix, and 1 μg of each RNA were mixed and diluted to 20 μL with RNase-free water.
(§8) Reverse transcription was conducted using the above samples under the following conditions. After reacting at 25° C. for 10 min, at 42° C. for 60 min, and at 85° C. for 5 min, the product was stored at 4° C. With the cDNA as a template real time RT-PCR was carried out by ABI PRISM 7000 using SYBR (registered trademark) GreenERTM qPCR SuperMix for ABI PRISM (registered trademark; Invitrogen). […]
(§9) Real time RT-PCR was conducted using the above samples under the following conditions. […] Changes of the respective parameters were determined by a calibration curve method. β-actin was measured as an internal control, and the respective parameters were calculated as a relative value based on the β-actin. […]
On the technique in general: Real-time PCR tracks product formation cycle by cycle.

Another assay relates to IL-1β. The assay can be described thus: Real time RT-PCR of inflammation parameter IL-1β in brain of mouse cerebral infarction model. Particulars: 10 mg/kg, ipsilesional (right) brain at 24 h, mean ± SE, n=6. As for the experimental part:
as §1, §2, §3, §4, §5, §6, §7, §8, §9

The test system of the next assay is IL-6. The assay can be described thus: Real time RT-PCR of inflammation parameter IL-6 in brain of mouse cerebral infarction model. Particulars: 10 mg/kg, ipsilesional (right) brain at 24 h, mean ± SE, n=6. As for the experimental part:
as §1, §2, §3, §4, §5, §6, §7, §8, §9

Assay [1] has as its system mouse cerebral infarction model. The assay can be described thus: Mouse cerebral infarction model: infarction area percentage, neurological symptom, edema percentage. The note with it: evaluated 24 h, mean ± SE, n=6. An excerpt: Using male ddY line mouse (body weight 35 to 45 g), a cerebral infarction model was produced and evaluated about neurological symptoms and the infarction area percentage according to methods similar to the production method and the evaluation method for the Mongolian gerbil cerebral infarction model.
The improvement effectiveness of SMTP-7 and alteplase on the infarction area percentage, the neurological symptom and the edema percentage was compared using the mouse cerebral infarction model. At the same time the dose dependence of the degree of improvement of SMTP-7 was investigated.
SMTP-7 and alteplase were prepared as in Example 2. Ten mg/kg each was administered into the femoral vein 1 hour or 3 hours after the initiation of ischemia in a mouse cerebral infarction model, wherein 10% was administered by a bolus administration, and the rest by continuous administration over 30 min. Further, 0.1 mg/kg or 1 mg/kg of SMTP-7 was administered into the femoral vein 1 hour after the initiation of ischemia in a mouse cerebral infarction model, wherein 10% was administered by a bolus administration, and the rest by continuous administration over 30 min. Six mice were used for each condition.
Twenty four hours after the initiation of the operation neurological symptom of each mouse was examined to rate the neurological symptom. Then the brain of each mouse was extirpated and the infarction area was measured and the infarction area percentage was determined. The edema percentage was determined according to the following formula: Edema percentage (%)=(Volume of the cerebral hemisphere affected by ischemia−Volume of the other side cerebral hemisphere)/Volume of the other side cerebral hemisphere×100 […]

Setting [2] is: administration initiated 1 hr after ischemia.
The mark [3] stands for this setting: 10 mg/kg femoral vein, administration initiated 1 hr after ischemia.
Setting [4] is: administration initiated 3 hr after ischemia.
Where [5] appears, read: 0.1 mg/kg femoral vein, administration 1 hour after ischemia.
Setting [6] is: 1 mg/kg femoral vein, administration 1 hour after ischemia.
Setting [7] is: 10 mg/kg femoral vein, administration initiated 3 hr after ischemia.

Marks after values point to notes of the source that are not given here.

Turning to `CC(C)=CCC/C(C)=C/CCC1(C)Oc2c(c(O)cc3c2CN(C(Cc2c[nH]c4ccccc24)C(=O)O)C3=O)CC1O` (stereo not drawn) [SMTP-6], the “TNF-α, relative value to β-actin” value in the assay with TNF-α (setting [2]) came out at 0.261 ± 0.119. Also, the “IL-1β, relative value to β-actin” value with IL-1β (setting [2]) was determined as 0.165 ± 0.0930. In addition, in the assay with IL-6 (setting [2]), the “IL-6, relative value to β-actin” value amounted to 0.220 ± 0.0850. In assay [1] (setting [3]), this molecule had an Edema percentage of 9.80 ± 2.74%, an Infarction area of 9.81 ± 1.43% and a Neurological scores of 3 ± 0.447.

In the case of `CC(C)=CCC/C(C)=C/CC[C@@]1(C)Oc2c(c(O)cc3c2CN(CCC[C@@H](C(=O)O)N2Cc4c(cc(O)c5c4O[C@](C)(CC/C=C(\C)CCC=C(C)C)[C@@H](O)C5)C2=O)C3=O)C[C@@H]1O` [SMTP-7], the entries for the “TNF-α, relative value to β-actin” value in the assay on TNF-α (setting [2]) and with TNF-α (setting [4]) were 0.151 ± 0.0313 and 0.147 ± 0.0293, respectively. Besides, the results for the “IL-1β, relative value to β-actin” value in the assay with IL-1β (setting [2]) and with IL-1β (setting [4]) were 0.0314 ± 0.0171 and 0.0728 ± 0.0380, respectively. The “IL-6, relative value to β-actin” value turned out to be 0.0356 ± 0.0138 in the assay with IL-6 (setting [2]) and 0.0651 ± 0.0308 with IL-6 (setting [4]). For the same molecule, the Edema percentage is recorded as 10.15 ± 1.817% in assay [1] (setting [5]), 8.81 ± 2.292% in assay [1] (setting [6]), 5.81 ± 0.967 % in assay [1] (setting [3]) and 6.23 ± 1.07 % in assay [1] (setting [7]). For the same molecule, the Infarction area in assay [1] (setting [5]) stood at 10.08 ± 2.07%; in assay [1] (setting [6]), 6.66 ± 0.71 %; in assay [1] (setting [3]), 4.87 ± 1.06 %; in assay [1] (setting [7]), 5.05 ± 0.576 %. The Neurological scores is listed as 2.5 ± 0.5 in assay [1] (setting [5]), 2 ± 0.632 in assay [1] (setting [6]), 1.67 ± 0.422 in assay [1] (setting [3]) and 1.33 ± 0.558 in assay [1] (setting [7]).

For the molecule alteplase [reference compound], the “TNF-α, relative value to β-actin” value in the assay with TNF-α (setting [2]) amounted to 0.164 ± 0.0332; in the assay on TNF-α (setting [4]) it was 0.381 ± 0.155. Further, the “IL-1β, relative value to β-actin” value is listed as 0.0408 ± 0.0173 in the assay on IL-1β (setting [2]) and 0.347 ± 0.172**^,## in the assay with IL-1β (setting [4]). Besides, the “IL-6, relative value to β-actin” value in the assay on IL-6 (setting [2]) is listed as 0.0582 ± 0.0254; in the assay with IL-6 (setting [4]) it was 0.341 ± 0.138**^,#. Also, the Edema percentage in assay [1] (setting [3]) was determined as 3.63 ± 2.67 %; in assay [1] (setting [7]) it was 12.6 ± 1.84%. Also, the Infarction area in assay [1] (setting [3]) stood at 6.15 ± 1.94 %; in assay [1] (setting [7]) it was 11.9 ± 2.26%. In addition, the Neurological scores in assay [1] (setting [3]) amounted to 1.17 ± 0.749; in assay [1] (setting [7]), 2.50 ± 0.500.
